{"source": "paper PMC9090717", "about": "“Fullerenemalonates inhibit amyloid beta aggregation, in vitro and in silico evaluation” (RSC Advances, 2018)", "key": {"[1]": {"system": "SH-SY5Y neuroblastoma cells", "assay": "MTT cell viability assay", "settings": "13 μM, 24 h, normalized to control", "method": "(§1) The neuroblastoma cell lines SH-SY5Y (ATCC) were grown in 25 cm^2 flasks at 37 °C with 5% CO2 in advanced DMEM/F-12 medium (Sigma-Aldrich), supplemented with 10% fetal bovine serum (Invitrogen); for cytotoxicity assay, cells were seeded at a density of 1 × 10^4 in triplicate per sample in a 96 well microplate 24 h before the treatment. The fullerenemalonates were incubated for 24 h at the corresponding concentration for their ability to inhibit Aβ42 aggregation, 13 μM. Likewise, the vehicles of each fullerenemalonate other than water (acetonitrile and ethanol) were assessed to validate its toxicity. The cell viability assay was evaluated using Thiazolyl Blue Tetrazolium Bromide (MTT, Sigma-Aldrich); based on the conversion of MTT to water-insoluble MTT-formazan of dark blue color by the mitochondrial dehydrogenases of living cells. The absorbance of formazan was measured at a wavelength of 570 nm in a plate reader, iMark Biorad. For a cytotoxic concentration (CC50) the fullerenemalonates were incubated at different concentrations followed by a cell viability assay. The CC50 was determined from the curves obtained by fitting the average absorbance values in three independent experiments in the 10–80 μM fullerenemalonate concentration range."}, "[2]": {"design": "method as in PMID 16853553", "settings": "aqueous solution; cited from earlier work"}, "Aβ42": {"system": "Aβ42", "settings": "cited from earlier work"}, "[3]": {"system": "SH-SY5Y neuroblastoma cells", "settings": "human, 24 h, 13 μM", "method": "as §1"}}, "note": "Where “and” joins values, the source holds several entries; their conditions need not be identical. Equal entries are not always repeated. Where two headings read alike, the source gives them in different places.", "data": [{"molecule": "O=C([O-])C1(C(=O)[O-])C23c4c5c6c7c8c9c(c%10c%11c2c2c4c4c%12c5c5c6c6c8c8c%13c9c9c%10c%10c%11c%11c2c2c4c4c%12c%12c5c5c6c8c6c8c%13c9c9c%10c%10c%11c2c2c4c4c%12c5c6c5c8c9c%10c2c45)C713.[Na+].[Na+]", "note": "[C61(COONa)2]", "values": [{"measurement": "Cell survival rate (%)", "setting": "[1]", "value": "64% and 64.34 ± 0.30%"}, {"measurement": "Average hydrodynamic radius Rh of self-assembled particles", "setting": "[2]", "value": "≈ 32 nm"}]}, {"molecule": "1,2-(dimethoxymethano) fullerene", "values": [{"measurement": "IC50", "setting": "Aβ42; Aβ42 concentration 20 μM, read-out: IC50, inhibition of Aβ peptide aggregation", "value": "~9", "unit": "µM"}]}, {"molecule": "CCOC(=O)C1(C(=O)OCC)C23c4c5c6c7c8c9c(c%10c%11c2c2c4c4c%12c5c5c6c6c8c8c%13c9c9c%10c%10c%11c%11c2c2c4c4c%12c%12c5c5c6c8c6c8c%13c9c9c%10c%10c%11c2c2c4c4c%12c5c6c5c8c9c%10c2c45)C713", "note": "[C61(COOEt)2]", "values": [{"measurement": "Cell survival rate (%)", "setting": "[3]", "value": "65.65 ± 0.29", "unit": "%"}]}, {"molecule": "sodium fullerenolate", "values": [{"measurement": "Anti-amyloid activity in Aβ42", "setting": "Aβ42", "value": "strong anti-amyloid activity"}]}, {"molecule": "CCOC(=O)C1(C(=O)OCC)C23c4c5c6c7c8c4-c4c2c2c9c%10c%11c%12c(c-5c5c%13c%14c%15c%16c%17c(c-7c7c%18c%19c%20c%21c(c4C%204C(C(=O)OCC)(C(=O)OCC)C874)c2c2c9c4c%11c7c(c%13%12)c%14c8c%16c9c(c%18%17)c%19c%11c%21c2c2c4c7c8c9c%112)C%152C(C(=O)OCC)(C(=O)OCC)C652)C%1013", "note": "(stereo not drawn) [C3-C63(COOEt)6]", "values": [{"measurement": "Cell survival rate (%)", "setting": "[3]", "value": "78.59 ± 0.22", "unit": "%"}]}]}
